{"source": "patent US9814726B2", "about": "“Composition for preventing or treating fatty liver diseases” (LG CHEM, LTD., priority 2014, dated 2017)", "key": {"[1]": {"system": "ob/ob mice with MCD diet", "experiment": "Steatohepatitis model accompanying obesity: ob/ob mice with MCD (methionine choline-deficient) diet", "type": "in vivo, mouse"}, "[2]": {"system": "C57BL/6J Lep(−/−) male (ob/ob) mice", "experiment": "Obese fatty liver model: ob/ob mice on normal chow diet, oral treatment for 4 weeks, liver and serum analysis", "type": "in vivo, mouse", "procedure": "As experimental animals, 6-week-old male ob/+ mouse for control, and 6-week-old C57BL/6J Lep(−/−) male (ob/ob) mice were purchased from Harlan (Indianapolis, Ind.). The purchased mice were maintained under standard condition (25° C., 55% humidity and 12-hour light periodicity) with normal chow diet. 30 mice were divided into 3 groups, 10 mice in each group. Group 1 included 10 C57BL/6J(ob/+ control group) mice, Group 2 was vehicle-treated 10 ob/ob mice treated with saline solution, and Group 3 was a group in which (tetrahydropyran-4-yl)-[2-phenyl-5-(1,1-dioxo-thiomorpholin-4-yl)methyl-1H-indol-7-yl]amine (LG Life Sciences Ltd., Daejeon, Republic of Korea) was treated once a day by 20 mg/kg dosage. Saline solution and (tetrahydropyran-4-yl)-[2-phenyl-5-(1,1-dioxo-thiomorpholin-4-yl)methyl-1H-indol-7-yl]amine solution were orally administered for 4 weeks. After treatment, animals were anesthetized and sacrificed, and livers were rapidly taken and stored for the next analysis. […]"}, "[3]": {"conditions": "20 mg/kg/day, vs vehicle-treated group, FIG. 5A/5B"}, "[4]": {"conditions": "ob/ob mice, 20 mg/kg/day, FIG. 2"}, "[5]": {"conditions": "ob/ob mice, oral 20 mg/kg once a day, 4 weeks, p<0.001 vs vehicle"}, "[6]": {"conditions": "ob/ob mice, oral 20 mg/kg once a day, 4 weeks, vs vehicle"}}, "data": [{"smiles": "O=S1(=O)CCN(Cc2cc(NC3CCOCC3)c3[nH]c(-c4ccccc4)cc3c2)CC1", "note": "[Comp., (tetrahydropyran-4-yl)-[2-phenyl-5-(1,1-dioxo-thiomorpholin-4-yl)methyl-1H-indol-7-yl]amine]", "values": [{"measurement": "amount of ALT in blood serum", "setting": "[1]; 20 mg/kg/day", "result": "remarkably decreased"}, {"measurement": "amount of AST in blood serum", "setting": "[1]; 20 mg/kg/day", "result": "remarkably decreased"}, {"measurement": "liver TG amount", "setting": "[1]; 20 mg/kg/day (vehicle 400+/−80), FIG. 5C", "result": "210+/−20 mg/g liver"}, {"measurement": "phosphorylation of fibrosis markers (NF-γB p65, NF-κB p105, p38 and JNK 1/2)", "setting": "[1]; 20 mg/kg/day, FIG. 5D", "result": "inhibited"}, {"measurement": "decrease of liver TG amount", "setting": "[1]; 20 mg/kg/day, vs vehicle, FIG. 5C", "result": "about 50%"}, {"measurement": "expression of collagen I (liver fibrosis)", "setting": "[1]; [3]", "result": "inhibited"}, {"measurement": "intensity of trichrome staining (liver fibrosis)", "setting": "[1]; [3]", "result": "inhibited"}, {"measurement": "activation of the mitochondrial respiration chain complexes I, III, IV and V", "setting": "[2]; ob/ob mice liver, 20 mg/kg/day, FIG. 3", "result": "meaningfully increased"}, {"measurement": "OXPHOS complexes I, III, IV and V by BN-PAGE: binding between the complexes", "setting": "[2]; ob/ob mice treated for 4 weeks, 20 mg/kg/day", "result": "enhanced"}, {"measurement": "amount of TBARS (oxidative stress, lipid oxidation)", "setting": "[2]; [4]", "result": "significant decrease"}, {"measurement": "level of 3-NT (nitrotyrosine) in liver", "setting": "[2]; [4]", "result": "considerably decreased"}, {"measurement": "amount of TNF-alpha in minced liver samples (ELISA)", "setting": "[2]; ob/ob mice, 20 mg/kg/day, FIG. 4B", "result": "significantly low amount"}, {"measurement": "expression of liver mitochondrial complex I, III, IV and V", "setting": "[2]; ob/ob mice, 20 mg/kg/day, compared with ob/+ control group, FIG. 3A", "result": "remained up to the level of the control group"}, {"measurement": "expression of mRNA of TNF-α in the liver", "setting": "[2]; ob/ob mice, 20 mg/kg/day, vs vehicle", "result": "inhibited"}, {"measurement": "amount of IL-6 mRNA", "setting": "[2]; ob/ob mice, 20 mg/kg/day, vs vehicle group", "result": "no difference"}, {"measurement": "number of 8-OHdG positive liver cells (DNA damage by oxidative stress)", "setting": "[2]; ob/ob mice, 20 mg/kg/day, vs vehicle, FIG. 2", "result": "remarkably low"}, {"measurement": "phosphorylation of NF-κB p65, NF-κB p105, p38 and JNK 1/2 in liver (immunoblotting)", "setting": "[2]; ob/ob mice, 20 mg/kg/day, vs vehicle, FIG. 4A", "result": "significantly decreased"}, {"measurement": "inflammation reaction: infiltration of activated macrophages in liver (immune staining of F4/80 and Cd68)", "setting": "[2]; ob/ob mice, 20 mg/kg/day, vs vehicle, FIG. 4C and 4D", "result": "decreased"}, {"measurement": "fatty tissue in liver (H&E staining)", "setting": "[2]; ob/ob mice, oral 20 mg/kg once a day, 4 weeks, FIG. 1", "result": "remarkably decreased"}, {"measurement": "TG level in the blood serum", "setting": "[2]; ob/ob mice, oral 20 mg/kg once a day, 4 weeks, between groups (data not shown)", "result": "did not show much difference"}, {"measurement": "amount of liver TG", "setting": "[2]; [5]", "result": "significant decrease"}, {"measurement": "amount of liver cholesterol", "setting": "[2]; [5]", "result": "significant decrease"}, {"measurement": "ALT value in blood serum", "setting": "[2]; [6]", "result": "decreased"}, {"measurement": "AST value in blood serum", "setting": "[2]; [6]", "result": "decreased"}, {"measurement": "Oil-Red O stained area in liver", "setting": "[2]; ob/ob mice, oral 20 mg/kg once a day, 4 weeks, vs vehicle-treated group", "result": "remarkably decreased"}]}]}
